According to paper PMC10606064, “2-Aminothiazole-Flavonoid Hybrid Derivatives Binding to Tau Protein and Responsible for Antitumor Activity in Glioblastoma” (International Journal of Molecular Sciences, 2023):

Experiments:
U251 glioblastoma cells = test: MTT cell viability assay, U251; type: cell-based; settings: Homo sapiens, U-251, U251, 72 h, mean ± SEM, read-out: IC50 (metabolic activity)
Procedure: Cells harvested from sub-confluent monolayers were seeded at 15,000 cells per mL in a 96-well microtiter plate (Cambridge Technology, Labège, France) and cultured for 24 h under standard conditions. Standard medium was then replaced by fresh medium containing no drugs or compounds at different concentrations. The surviving cells were quantified after 72 h by the MTT assay, according to the manufacturer’s instructions. Briefly, 20 µL of 3-(4,5-diMethylThiazol-2-yl)-2,5diphenyl Tetrazolium bromide (MTT) solution at 5 mg.mL^−1 was added to cells for 3 h at 37 °C. The supernatant was discarded and replaced by 100 µL of dimethyl sulfoxide to dissolve formazan crystals. The absorbance was then read at 600 nm by spectrophotometry. For all concentrations of a given compound, cell viability was expressed as the percentage of the ratio between the mean absorbance of treated cells and the mean absorbance of untreated cells. Three independent experiments were performed, and the data were expressed as percentage of survival (using the untreated cells as 100%) and subjected to statistical analysis (n = 3). The IC50 was calculated using the Chou and Talalay method.

[1] = system: caspase 3 protein (Casp3) in U87 shCTRL and U87 shTau cells; test: Caspase 3 expression by Western blot (apoptosis); type: cell-based, human; settings: both cell types, 48 h treatment
Procedure: Cells were lysed with freshly made RIPA buffer derivative (4.3 mL of TBS 1×, 50 µL of SDS 10%, 10 µL of EDTA 0.5 M, 500 µL of Triton 10×, and 1% inhibitors of protease and phosphatase). After 30 min of lysis at 4 °C under agitation, lysates were centrifuged at 10,000× g for 10 min at 4 °C. Equivalent amounts of proteins from the supernatant fraction were subjected to Western blot analysis. Protein samples were loaded (40 μg/lane) and separated on 10 or 12% sodium dodecyl sulfate-polyacrylamide gels. The separated proteins were transferred onto nitrocellulose blotting membrane using the Bio-Rad transfer system. Before blocking, the blots were stained with Ponceau red to visualize transfer efficiency. […] The band intensity was quantified using the ImageJ v1.50g software. […] The band intensity was quantified using the NIH ImageJ v1.50g software. […]
death. (A) The apoptotic protein casp ase 3 (Casp 3) was analy zed by western blot of U87 shCTRL and U87 shTau cells: for each s ample t he ratio between the amount of Casp3 and GAPDH was calculated as relative fold of the reference value (with or without the compound); n = 3 lysates, ns: non-si gnificant. […]
blot used for quantification. (B) The activity of necrotic LDH protein was analy zed by fluorescence emission in U87 shCTRL (upper panel) and U87 shTau (lower panel) cells. […]

U87 shCTRL cells = test: 2D random cell motility assay, U87 shCTRL; type: cell-based, human; settings: 1.4 µM of compound 2, 1.6 µM of compound 9
Procedure: Cell motility was recorded by time-lapse videomicroscopy, as previously described. Briefly, cells were trypsinized and then seeded on Fibronectin pre-coated 24-well plates at 10^4 cells per well and allowed to adhere at 37 °C for 2 h in a 5% CO2 incubator. The cells were briefly rinsed in imaging medium (EMEM containing 10% FBS) to remove unattached cells before imaging. For conditions using compounds, agents were added to cells 15 min before launching the recording of the time-lapse series. Next, the plates were placed on an inverted wide-field Nikon microscope equipped with a 10× air objective (NA = 0.3) at 37 °C in 5% CO2. For all conditions, 61 frames of four fields were acquired using a CCD camera (Coolsnap HQ camera, Photometrics, Tucson, AZ, USA) driven by NIS elements AR 2.30 software (Nikon, Heidelberg, Germany). Migration tracks (n = 60–80 cells) were used to calculate total migration distance, distance to origin, velocity, and directional persistence of cell migration. Velocity was calculated as the total migration distance divided by 600 (600 min is total time of experiment). The distance to origin was determined as the net translocation between the initial and the final position. Directional persistence was calculated as the ratio of the distance to origin to that of the total distance migration.

Row | IC50 (U251 glioblastoma cells) [µM] | Structure (SMILES) | expression of caspase 3 (Casp3) [1] | decrease in distance to origin (U87 shCTRL cells) [%] | decrease in velocity (U87 shCTRL cells) [%]
1 | > 100 | Nc1nc2ccc3oc(C(=O)O)cc(=O)c3c2s1 [Compound 5] | no change in the expression of Casp3 |  | 
2 | 1.7 ± 0.5 | Nc1nc2ccc3oc(-c4cccc(Oc5ccccc5)c4)cc(=O)c3c2s1 [Compound 2, 2-amino-7-(3-phenoxyphenyl)-9H-chromeno [6,5-d]thiazol-9-one] | no change in the expression of Casp3 | 25 | 15
